Results as given in patent US5840684A, “Glycopeptide antibiotic derivatives” (Eli Lilly and Company, priority 1995, dated 1998).
In brackets after ≈: the same amount, converted by molar mass.

What was measured:
[1] = test system: Staphylococcus aureus S13E; type: cell-based
Experimental: (§1) The MIC's were determined using a standard broth micro-dilution assay.

[2] = test system: Staphylococcus aureus SA1199B; type: cell-based
Experimental: as §1

[3] = test system: Entercoccus faecium 180-1; experiment: broth micro-dilution MIC; type: cell-based
Experimental: as §1

[4] = test system: Entercoccus faecium 276; experiment: broth micro-dilution MIC; type: cell-based
Experimental: as §1

[5] = test system: Staphylococcus aureus 446; experiment: broth micro-dilution MIC; type: cell-based
Experimental: as §1

[6] = test system: Staphylococcus aureus 447; experiment: broth micro-dilution MIC; type: cell-based
Experimental: as §1

[7] = test system: Staphylococcus aureus 489; experiment: broth micro-dilution MIC; type: cell-based
Experimental: as §1

[8] = test system: Staphylococcus aureus 491; experiment: broth micro-dilution MIC; type: cell-based
Experimental: as §1

[9] = test system: Staphylococcus aureus SA1199A; experiment: broth micro-dilution MIC; type: cell-based
Experimental: as §1

[10] = test system: Staphylococcus aureus SA1199; experiment: broth micro-dilution MIC; type: cell-based
Experimental: as §1

[11] = test system: Staphylococcus aureus X400; experiment: broth micro-dilution MIC; type: cell-based
Experimental: as §1

[12] = test system: Staphylococcus aureus X778; experiment: broth micro-dilution MIC; type: cell-based
Experimental: as §1

[13] = test system: Streptococcus pyogenes C203; experiment: broth micro-dilution MIC; type: cell-based
Experimental: as §1

[14] = test system: Entercoccus faecium 180; experiment: broth micro-dilution MIC; type: cell-based; settings: Entercoccus faecium 180
Experimental: (§2) The formula I compounds have in vitro and in vivo activity against Gram-positive pathogenic bacteria. The MIC's were determined using a standard broth micro-dilution assay.

[15] = test system: Entercoccus faecium 2041; experiment: broth micro-dilution MIC; type: cell-based; settings: Entercoccus faecium 2041
Experimental: as §2

[16] = test system: Enterococcus gallinarum 245; experiment: broth micro-dilution MIC; type: cell-based; settings: Enterococcus gallinarum 245
Experimental: as §2

[17] = test system: Staphylococcus epidermidis 270; experiment: broth micro-dilution MIC; type: cell-based
Experimental: as §2

[18] = test system: Staphylococcus haemolyticus 105; experiment: broth micro-dilution MIC; type: cell-based
Experimental: as §2

[19] = test system: Staphylococcus haemolyticus 415; experiment: broth micro-dilution MIC; type: cell-based
Experimental: as §2

[20] = test system: Streptococcus pneumoniae P1; experiment: broth micro-dilution MIC; type: cell-based
Experimental: as §2

[21] = test system: vancomycin-susceptible enterococci; experiment: broth micro-dilution, mean geometric MIC; type: cell-based, Enterococcus faecium and Enterococcus faecalis; settings: enterococci, 24-hour incubation
[22] = test system: vancomycin-resistant enterococci; experiment: broth micro-dilution, mean geometric MIC; type: cell-based, Enterococcus faecium and Enterococcus faecalis; settings: enterococci, 24-hour incubation

Compound | MIC [1] | MIC [2] | MIC [3] | MIC [4] | MIC [5] | MIC [6] | MIC [7] | MIC [8] | MIC [9] | MIC [10] | MIC [11] | MIC [12] | MIC [13] | MIC [14] | MIC [15] | MIC [16] | MIC [17] | MIC [18] | MIC [19] | MIC [20] | also measured
CNC(CC(C)C)C(=O)NC1C(=O)NC(CC(N)=O)C(=O)NC2C(=O)NC3C(=O)NC(C(=O)NC(C(=O)O)c4cc(O)cc(O)c4-c4cc3ccc4O)C(OC3CC(C)(N)C(O)C(C)O3)c3ccc(c(Cl)c3)Oc3cc2cc(c3OC2OC(CO)C(O)C(O)C2OC2CC(C)(NCc3cc4ccccc4c4ccccc34)C(O)C(C)O2)Oc2ccc(cc2Cl)C1O (centres unmarked) [Compound 11] | 0.5 µg/mL (≈ 0.28 µM) | 2 µg/mL (≈ 1.12 µM) | ≤ 0.06 µg/mL | 1 µg/mL (≈ 0.561 µM) | 4 µg/mL (≈ 2.24 µM) | 4 µg/mL (≈ 2.24 µM) | 1 µg/mL (≈ 0.561 µM) | 1 µg/mL (≈ 0.561 µM) | ≤ 0.06 µg/mL | 2 µg/mL (≈ 1.12 µM) | 0.5 µg/mL (≈ 0.28 µM) | 0.25 µg/mL (≈ 0.14 µM) | ≤ 0.06 µg/mL | 1 µg/mL (≈ 0.561 µM) | 0.5 µg/mL (≈ 0.28 µM) | ≤ 0.06 µg/mL | 2 µg/mL (≈ 1.12 µM) | 4 µg/mL (≈ 2.24 µM) | 2 µg/mL (≈ 1.12 µM) | ≤ 0.06 µg/mL | mean geometric MIC, Vancomycin Sensitive Strains [21]: 0.22 µg/mL
CNC(CC(C)C)C(=O)NC1C(=O)NC(CC(N)=O)C(=O)NC2C(=O)NC3C(=O)NC(C(=O)NC(C(=O)O)c4cc(O)cc(O)c4-c4cc3ccc4O)C(OC3CC(C)(N)C(O)C(C)O3)c3ccc(c(Cl)c3)Oc3cc2cc(c3OC2OC(CO)C(O)C(O)C2OC2CC(C)(NCc3c4ccccc4cc4ccccc34)C(O)C(C)O2)Oc2ccc(cc2Cl)C1O (centres unmarked) [Compound 13] | 0.25 µg/mL (≈ 0.14 µM) | 4 µg/mL (≈ 2.24 µM) | ≤ 0.06 µg/mL | 0.5 µg/mL (≈ 0.28 µM) | 2 µg/mL (≈ 1.12 µM) | 8 µg/mL (≈ 4.49 µM) | 1 µg/mL (≈ 0.561 µM) | 2 µg/mL (≈ 1.12 µM) | ≤ 0.06 µg/mL | 0.5 µg/mL (≈ 0.28 µM) | 1 µg/mL (≈ 0.561 µM) | 2 µg/mL (≈ 1.12 µM) | ≤ 0.06 µg/mL | 2 µg/mL (≈ 1.12 µM) | 0.125 µg/mL (≈ 0.0701 µM) | 0.25 µg/mL (≈ 0.14 µM) | 8 µg/mL (≈ 4.49 µM) | 8 µg/mL (≈ 4.49 µM) | 1 µg/mL (≈ 0.561 µM) | ≤ 0.06 µg/mL | mean geometric MIC, Vancomycin Resistant Strains [22]: 19 µg/mL; mean geometric MIC, Vancomycin Sensitive Strains [21]: 0.76 µg/mL
CNC(CC(C)C)C(=O)NC1C(=O)NC(CC(N)=O)C(=O)NC2C(=O)NC3C(=O)NC(C(=O)NC(C(=O)O)c4cc(O)cc(O)c4-c4cc3ccc4O)C(OC3CC(C)(N)C(O)C(C)O3)c3ccc(c(Cl)c3)Oc3cc2cc(c3OC2OC(CO)C(O)C(O)C2OC2CC(C)(NCc3cccnc3)C(O)C(C)O2)Oc2ccc(cc2Cl)C1O (centres unmarked) [Compound 24] | ≤ 0.06 µg/mL | 2 µg/mL (≈ 1.19 µM) | ≤ 0.06 µg/mL | 0.25 µg/mL (≈ 0.148 µM) | 0.5 µg/mL (≈ 0.297 µM) | 1 µg/mL (≈ 0.594 µM) | ≤ 0.06 µg/mL | 0.5 µg/mL (≈ 0.297 µM) | ≤ 0.06 µg/mL | 0.5 µg/mL (≈ 0.297 µM) | 0.25 µg/mL (≈ 0.148 µM) | 0.125 µg/mL (≈ 0.0742 µM) | ≤ 0.06 µg/mL | 4 µg/mL (≈ 2.38 µM) | ≤ 0.06 µg/mL | 0.25 µg/mL (≈ 0.148 µM) | 1 µg/mL (≈ 0.594 µM) | 4 µg/mL (≈ 2.38 µM) | ≤ 0.06 µg/mL | ≤ 0.06 µg/mL | mean geometric MIC, Vancomycin Resistant Strains [22]: 54 µg/mL; mean geometric MIC, Vancomycin Sensitive Strains [21]: 0.67 µg/mL
CNC(CC(C)C)C(=O)NC1C(=O)NC(CC(N)=O)C(=O)NC2C(=O)NC3C(=O)NC(C(=O)NC(C(=O)O)c4cc(O)cc(O)c4-c4cc3ccc4O)C(OC3CC(C)(N)C(O)C(C)O3)c3ccc(c(Cl)c3)Oc3cc2cc(c3OC2OC(CO)C(O)C(O)C2OC2CC(C)(NCc3ccnc4ccccc34)C(O)C(C)O2)Oc2ccc(cc2Cl)C1O (centres unmarked) [Compound 27] | 0.125 µg/mL (≈ 0.0721 µM) | 1 µg/mL (≈ 0.577 µM) | 0.5 µg/mL (≈ 0.288 µM) | 0.5 µg/mL (≈ 0.288 µM) | 2 µg/mL (≈ 1.15 µM) | 8 µg/mL (≈ 4.61 µM) | ≤ 0.06 µg/mL | 1 µg/mL (≈ 0.577 µM) | ≤ 0.06 µg/mL | 0.5 µg/mL (≈ 0.288 µM) | 0.5 µg/mL (≈ 0.288 µM) | 0.5 µg/mL (≈ 0.288 µM) | ≤ 0.06 µg/mL | 8 µg/mL (≈ 4.61 µM) | 0.125 µg/mL (≈ 0.0721 µM) | 0.5 µg/mL (≈ 0.288 µM) | 4 µg/mL (≈ 2.31 µM) | 16 µg/mL (≈ 9.23 µM) | 8 µg/mL (≈ 4.61 µM) | ≤ 0.06 µg/mL | mean geometric MIC, Vancomycin Resistant Strains [22]: 45 µg/mL; mean geometric MIC, Vancomycin Sensitive Strains [21]: 1.5 µg/mL
CNC(CC(C)C)C(=O)NC1C(=O)NC(CC(N)=O)C(=O)NC2C(=O)NC3C(=O)NC(C(=O)NC(C(=O)O)c4cc(O)cc(O)c4-c4cc3ccc4O)C(OC3CC(C)(N)C(O)C(C)O3)c3ccc(c(Cl)c3)Oc3cc2cc(c3OC2OC(CO)C(O)C(O)C2OC2CC(C)(NCc3ccc4c(c3)OCCO4)C(O)C(C)O2)Oc2ccc(cc2Cl)C1O (centres unmarked) [Compound 56] | 0.125 µg/mL (≈ 0.0718 µM) | 0.5 µg/mL (≈ 0.287 µM) | ≤ 0.06 µg/mL | 0.25 µg/mL (≈ 0.144 µM) | 0.5 µg/mL (≈ 0.287 µM) | 2 µg/mL (≈ 1.15 µM) | 1 µg/mL (≈ 0.575 µM) | 0.5 µg/mL (≈ 0.287 µM) | ≤ 0.06 µg/mL | 0.125 µg/mL (≈ 0.0718 µM) | ≤ 0.06 µg/mL | 0.125 µg/mL (≈ 0.0718 µM) | ≤ 0.06 µg/mL | 2 µg/mL (≈ 1.15 µM) | 0.25 µg/mL (≈ 0.144 µM) | 16 µg/mL (≈ 9.19 µM) | 1 µg/mL (≈ 0.575 µM) | 4 µg/mL (≈ 2.3 µM) | 16 µg/mL (≈ 9.19 µM) | ≤ 0.06 µg/mL | mean geometric MIC, Vancomycin Resistant Strains [22]: 19 µg/mL
CNC(CC(C)C)C(=O)NC1C(=O)NC(CC(N)=O)C(=O)NC2C(=O)NC3C(=O)NC(C(=O)NC(C(=O)O)c4cc(O)cc(O)c4-c4cc3ccc4O)C(OC3CC(C)(N)C(O)C(C)O3)c3ccc(c(Cl)c3)Oc3cc2cc(c3OC2OC(CO)C(O)C(O)C2OC2CC(C)(NCc3cccc(Oc4ccc(Cl)cc4)c3)C(O)C(C)O2)Oc2ccc(cc2Cl)C1O (centres unmarked) [Compound 86] | 1 µg/mL (≈ 0.553 µM) | 1 µg/mL (≈ 0.553 µM) | ≤ 0.06 µg/mL | ≤ 0.06 µg/mL | 1 µg/mL (≈ 0.553 µM) | 0.5 µg/mL (≈ 0.276 µM) | 1 µg/mL (≈ 0.553 µM) | 1 µg/mL (≈ 0.553 µM) | ≤ 0.06 µg/mL | 0.5 µg/mL (≈ 0.276 µM) | 1 µg/mL (≈ 0.553 µM) | 1 µg/mL (≈ 0.553 µM) | ≤ 0.06 µg/mL | ≤ 0.06 µg/mL | ≤ 0.06 µg/mL | 1 µg/mL (≈ 0.553 µM) | 1 µg/mL (≈ 0.553 µM) | 1 µg/mL (≈ 0.553 µM) | 1 µg/mL (≈ 0.553 µM) | ≤ 0.06 µg/mL | mean geometric MIC, Vancomycin Resistant Strains [22]: 1.4 µg/mL; mean geometric MIC, Vancomycin Sensitive Strains [21]: 0.036 µg/mL
CN[C@H](CC(C)C)C(=O)N[C@H]1C(=O)N[C@@H](CC(N)=O)C(=O)N[C@H]2C(=O)N[C@H]3C(=O)N[C@H](C(=O)N[C@H](C(=O)O)c4cc(O)cc(O)c4-c4cc3ccc4O)[C@H](O[C@H]3C[C@](C)(N)[C@@H](O)[C@H](C)O3)c3ccc(c(Cl)c3)Oc3cc2cc(c3O[C@@H]2O[C@H](CO)[C@@H](O)[C@H](O)[C@H]2O[C@H]2C[C@](C)(NCc3cccc(-c4ccccc4)c3)[C@@H](O)[C@H](C)O2)Oc2ccc(cc2Cl)[C@H]1O [Compound 91] | ≤ 0.06 µg/mL | 0.5 µg/mL (≈ 0.284 µM) | ≤ 0.06 µg/mL | ≤ 0.06 µg/mL | 0.5 µg/mL (≈ 0.284 µM) | 0.5 µg/mL (≈ 0.284 µM) | ≤ 0.06 µg/mL | 1 µg/mL (≈ 0.569 µM) | ≤ 0.06 µg/mL | ≤ 0.06 µg/mL | 0.5 µg/mL (≈ 0.284 µM) | ≤ 0.06 µg/mL | ≤ 0.06 µg/mL | 0.5 µg/mL (≈ 0.284 µM) | ≤ 0.06 µg/mL | 2 µg/mL (≈ 1.14 µM) | 0.5 µg/mL (≈ 0.284 µM) | 2 µg/mL (≈ 1.14 µM) | 2 µg/mL (≈ 1.14 µM) | ≤ 0.06 µg/mL | mean geometric MIC, Vancomycin Resistant Strains [22]: 2.8 µg/mL; mean geometric MIC, Vancomycin Sensitive Strains [21]: 0.11 µg/mL
